“And” between values parts separate entries of the source, which are not always exact repeats. Identical values can stand only once. The source made the active and inactive calls.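 Rule for the calls: active = compounds giving half or more protection of infected cells from virus-caused growth loss, again on retest; inactive = the rest.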
Tested on: CEM cells HIV-1 protection, formazan growth assay
Assay: NCI AIDS Antiviral Assay
Conditions: for IC50: measured here: growth of uninfected CEM cells
Method in brief: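 Soluble formazan readout of cell growth; CEM cells ± HIV-1; 5 drug concs. ≥50% protection → retest; ≥50% again = moderately active; reproducible 100% = confirmed active.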

SMILES	EC50	IC50	outcome
OCC(c1ccccc1)[P+](c1ccccc1)(c1ccccc1)c1ccccc1 (configuration not stated)	> 200 µM	11.2 µM	–
O=S1(=O)c2ccccc2N(O)C2=NCCN21	> 550 µM	91.2 µM	–
O=C(O)C1C2OC3C(OC(=O)C31)C2Br (configuration not stated)	> 200 µM	> 200 µM	–
CC#CCCC1CCCCNC1=O (configuration not stated)	> 138 µM	> 138 µM	–
O=C(O)c1ccc(N=Nc2cc(S(=O)(=O)O)c3cccnc3c2O)cc1	> 19.5 µM	> 19.5 µM	–
Cc1nc(N)nc(N)c1CCCCc1ccc(N)cc1	–	–	inactive
Cc1nnc(N/N=C(/C(=O)C(C#N)c2ccccc2)C(C#N)c2ccccc2)n1N (configuration not stated)	> 224 µM	38.9 µM	–
O=C(C(=C(I)I)c1ccccc1)c1ccccc1	> 200 µM	19.5 µM	–
Cc1cn(CC2=NC3CCCCC3N2)c(=O)[nH]c1=O (configuration not stated)	> 200 µM	> 200 µM	–
CCOC(=O)/C(=C/c1ccc(OCc2ccccc2)cc1)P(=O)(OCC)OCC	> 44.7 µM	4.27 µM	–
NC(=S)Nc1[nH]c(=S)nc2[nH]ccc12	> 91.2 µM	83.2 µM	–
O=C(CCCCCCCCc1ccc(O)cc1)c1c(O)cccc1O	–	–	inactive
O=C(/C=C/c1ccccc1)c1c2ccccc2cc2ccccc12	> 8.91 µM	> 8.91 µM	–
O=C(Nc1ccc(Cl)cc1)C1C(=O)C(=O)N(c2ccc(Cl)cc2)C1=O (configuration not stated)	–	–	inactive
Cc1ccc2c3nc4ccccc4c-3csc2c1	0.17 µM	0.363 µM	–
CCOC(=O)/C(=C/c1ccc(N(CCC#N)CCC#N)cc1C)NC(=O)/C=C/c1ccccc1	–	–	inactive
O=C(O)CCCCCCCCCCC(=O)O	> 148 µM	> 148 µM	–
O=S(O)CCCCSSCC(O)CO (configuration not stated)	> 200 µM	2.63 µM	–
O=[N+]([O-])c1ccc(Sc2c3ccccc3nc3ccccc23)cn1	> 100 µM	7.24 µM	–
COc1ccc2cc3[nH]c(=O)cc(O)c3cc2c1OC	–	–	inactive
Cc1ccc(S(=O)(=O)n2cc(/C=C/C#N)c(/C=C/C#N)c2)cc1	–	–	inactive
Cc1ccc(C(=O)Nc2ccc(CP(=O)(O)O)cc2CP(=O)(O)O)cc1NC(=O)Nc1cc(C(=O)Nc2ccc(CP(=O)(O)O)cc2CP(=O)(O)O)ccc1C	> 200 µM	> 200 µM	–
COc1ccc2c(c1)CC[C@@H]1C2CC[C@]2(C)OC(=O)CCC12 (some centres not stated)	> 87.1 µM	12 µM	–

SMILES	EC50	IC50	outcome
CC(=O)c1cccc(C(C)=O)c1N=Cc1ccc(Cl)cc1	> 200 µM	13.2 µM	–
O=C1N/C(=C\c2ccccc2)C(=O)N1CN1CCCC1	> 200 µM	115 µM	–
CC(C)CC(NC(=O)OC(C)(C)C)C(=O)Nc1ccc(Nc2nc(F)nc(-c3c4ccccc4cn3C)n2)cc1 (configuration not stated)	> 18.2 µM	16.6 µM	–
O=C(CC(=O)c1cccc2ccccc12)C(=O)Nc1nccs1	> 30.9 µM	> 30.9 µM	–
COC(=O)C1=CC2CC1C(S(=O)(=O)c1ccccc1)C2S(=O)(=O)c1ccccc1 (configuration not stated)	> 100 µM	4.57 µM	–
Cc1nc(CC#N)n[nH]1	> 200 µM	> 200 µM	–
COc1ccc2c(c1)CCc1c-2n(CCN(C)C)c2ccc(OC)cc12	> 200 µM	6.17 µM	–
CC1=N/C(=C\c2ccccc2C)C(=O)O1	> 1230 µM	> 1230 µM	–
COC(=O)C1Cc2c(n(Cc3ccccc3)c3ccccc23)C(CCC(=O)O)N1C(C)C (configuration not stated)	–	–	inactive
CC(=O)O[C@H]1[C@@H]2[C@@H](C[C@H](C)[C@H]3C=CC(=O)[C@@]31C)OC(=O)[C@@H]2C	> 200 µM	34.7 µM	–
O=S(=O)(c1ccccc1)C1CC(c2nc3ccccc3[nH]2)=NO1 (configuration not stated)	> 200 µM	132 µM	–
C1CSCC2(COC2)CSCCSCC2(COC2)CS1	> 14.8 µM	> 14.8 µM	–
CC(/C=N/N=C(N)N)=N\N=C(N)N	> 977 µM	2.75 µM and 0.513 µM	–
O=c1[nH]nc(Cc2ccccc2)n1/N=C/c1ccccc1O	> 200 µM	85.1 µM	–
CCC[CH2][Sn]([CH2]CCC)([O]C(=O)C(OC(C)=O)c1ccccc1)[O]C(=O)C(OC(C)=O)c1ccccc1 (configuration not stated)	> 11.5 µM	0.191 µM	–
CCOc1ccc(N2CC(=O)N3CCCN3C(=O)C2)cc1	> 123 µM	> 123 µM	–
COC(=O)/N=[N+](\[O-])C(c1ccc(Cl)cc1)c1ccc(Cl)cc1	> 200 µM	64.6 µM	–
COC1/C=C\C=C(/C)C(=O)NC2=CC(=O)C=C(C2=O)C(OC)C(C)CC(OC)C(OC)C(C)/C=C(/C)C1OC(N)=O (configuration not stated)	> 63.1 µM	0.407 µM	–
O=C1c2ccccc2C(C2c3ccccc3C(=O)c3ccccc32)c2ccccc21	–	–	inactive
COc1ccc(N=Nc2c(-c3ccccc3)nn(C(=O)CC(=O)Nc3ccccc3Cl)c2-c2ccccc2)cc1	> 24.5 µM	22.9 µM	–
O=c1ccn(CC2(CO)CCC2)c(=O)[nH]1	> 200 µM	> 200 µM	–
Cc1c([N+](=O)[O-])c(=O)oc2c(C)c3occc(=O)c3cc12	> 6.92 µM	> 6.92 µM	–
